US6147100A, “Pyrrolidine derivatives having phospholipase A2 inhibitory activity” (Shionogi & Co., Ltd., priority 1997, dated 2000)

Tests used:
[1] = test system: production of prostaglandin E2 by human fibroblasts; test: Inhibition of Production of Prostaglandin E2 in Human Fibroblasts (IL-1 stimulation); format: cell-based; conditions: Fibroblast; human fibroblasts under stimulation with IL-1
Description: Test Example 2 Inhibition of Production of Prostaglandin E2 in Human Fibroblasts.
In order to examine the availability of the composition for inhibiting cytosolic phospholipase A2 (cPLA2) on the cells, the compounds of the present invention were tested for the effect on the production of prostaglandin E2 by human fibroblasts under the stimulation with IL-1 according to the method of J. M. Dayer et al (CACHECTIN/TUMOR NECROSIS FACTOR STIMULATES COLLAGENASE AND PROSTAGLANDIN E2 PRODUCTION BY HUMAN SYNOVIAL CELLS AND DERMAL FIBROBLASTS; J. M. Dayer, B, Beutler and A, Cerami, J. EXP. Med., 1985, 162, 2163-2168.).

cPLA2 = target: T1, cPLA2 (Homo sapiens, UniProt P47712); test: cPLA2 Inhibitory Activity; format: biochemical; conditions: 1-palmitoyl-2-[14C]-arachidonoyl-sn-glycero-3-phosphocholine 2.5 μM, sn-1,2-dioleoylglycerol 1.25 μM; pH 7.5, 15 min at 37° C.
T1 sequence (P47712 1-749): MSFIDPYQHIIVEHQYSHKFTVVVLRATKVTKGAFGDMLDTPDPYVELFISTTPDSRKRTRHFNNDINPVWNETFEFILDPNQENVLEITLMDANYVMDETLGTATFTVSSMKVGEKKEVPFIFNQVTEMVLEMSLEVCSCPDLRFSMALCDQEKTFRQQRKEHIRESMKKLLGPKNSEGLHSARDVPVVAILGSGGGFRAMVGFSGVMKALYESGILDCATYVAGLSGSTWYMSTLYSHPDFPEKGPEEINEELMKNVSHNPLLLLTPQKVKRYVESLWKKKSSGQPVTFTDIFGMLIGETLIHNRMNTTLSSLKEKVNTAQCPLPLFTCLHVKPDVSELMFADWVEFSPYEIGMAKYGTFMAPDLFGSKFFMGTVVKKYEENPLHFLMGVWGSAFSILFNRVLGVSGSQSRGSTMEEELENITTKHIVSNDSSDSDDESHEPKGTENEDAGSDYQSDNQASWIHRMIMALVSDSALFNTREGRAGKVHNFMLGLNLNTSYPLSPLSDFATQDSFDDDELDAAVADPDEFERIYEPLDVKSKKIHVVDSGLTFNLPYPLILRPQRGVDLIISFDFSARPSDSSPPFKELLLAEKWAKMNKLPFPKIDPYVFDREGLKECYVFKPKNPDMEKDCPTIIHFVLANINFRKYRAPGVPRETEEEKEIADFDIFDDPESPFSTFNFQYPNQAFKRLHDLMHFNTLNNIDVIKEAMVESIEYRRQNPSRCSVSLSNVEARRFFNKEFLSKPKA
Description: Test Example 1 cPLA2 Inhibitory Activity The compounds of the present invention were tested for the cPLA2 inhibitory activity according to the method disclosed in […]. Roberts, […], and J. E. Putnam, J. Biol. Chem., 1991, 266, 5268-5272 as outlined below. […] The reaction mixture includes 50 mM HEPES buffer (pH 7.5), 1 mM calcium chloride, 150 mM sodium chloride, 0.1 mg/ml bovine serum albumin, and 1.7 mM dithiothreitol. To the reaction mixture was added the compound of the present invention and the substrate solution. The reaction was allowed to start by adding an enzyme and continued for 15 min at 37° C. The fatty acids released by the reaction were extracted by the method described in V. P. Dole, and H. Meinertz, J. Biol. Chem., 1960, 235, 2595-2599 and its radiation activity was measured on a liquid scintillation counter. Control was obtained by conducting the experiment in the same manner except that a compound of the present invention was not added.

Row | IC50 (cPLA2) [µM] | SMILES | IC50 [1] [µM]
1 | 0.055 | O=C1NC(=O)/C(=C/c2ccc(C(=O)NC[C@@H]3C[C@@H](CCc4ccccc4-c4ccccc4)CN3C(=O)c3ccccc3C(=O)c3ccc(F)cc3)cc2)S1 [Compound O-3] | 1.1
2 | 0.055 | O=C1NC(=O)/C(=C/c2ccc(S(=O)(=O)NC[C@@H]3C[C@@H](SCc4ccccc4-c4ccccc4)CN3C(=O)c3ccccc3C(=O)c3ccc(F)cc3)cc2)S1 [Compound I-3] | 0.98
3 | 1.81 | O=C1NC(=O)/C(=C/c2ccc(C(=O)NC[C@H]3C[C@@H](OCc4ccccc4-c4ccccc4)CN3C(=O)c3ccccc3C(=O)c3ccc(F)cc3)cc2)S1 [Compound Q-2] | 1.4
4 | 0.13 | CN(Cc1ccccc1-c1ccccc1)[C@@H]1C[C@@H](C(=O)Nc2ccc(/C=C3\SC(=O)NC3=O)cc2)N(C(=O)c2ccccc2C(=O)c2ccc(F)cc2)C1 [Compound N-2] | 1.8
5 | 0.06 | CCN(Cc1ccccc1-c1ccccc1)[C@@H]1C[C@@H](CNC(=O)c2ccc(/C=C3\SC(=O)NC3=O)cc2)N(C(=O)c2ccccc2C(=O)c2ccc(F)cc2)C1 [Compound M-8] | 0.8
6 | 0.1 | O=C1NC(=O)/C(=C/c2ccc(C(=O)NC[C@@H]3C[C@H](SCc4ccccc4-c4ccccc4)CN3C(=O)c3ccccc3C(=O)c3ccc(F)cc3)cc2)S1 [Compound I-1] | 0.26
7 | 0.022 | CC(C)CN(Cc1ccccc1-c1ccccc1)[C@@H]1C[C@@H](CNC(=O)c2ccc(/C=C3\SC(=O)NC3=O)cc2)N(C(=O)c2ccccc2C(=O)c2ccc(F)cc2)C1 [Compound M-10] | 0.27
8 | 0.0041 | CC(C)CN(C(c1ccccc1)c1ccccc1)[C@@H]1C[C@@H](CNC(=O)c2ccc(/C=C3\SC(=O)NC3=O)cc2)N(C(=O)c2ccccc2C(=O)c2ccc(F)cc2F)C1 [Compound M-17] | 1
9 | 1.1 | O=C1NC(=S)S/C1=C\c1ccc(CC[C@@H]2C[C@@H](OCc3ccccc3-c3ccccc3)CN2C(=O)c2ccccc2C(=O)c2ccc(F)cc2)cc1 [Compound E-1] | 2.2
10 | 0.5 | O=C1NC(=S)S/C1=C\c1ccc(NC(=O)[C@@H]2C[C@@H](SCc3ccccc3-c3ccccc3)CN2C(=O)c2ccccc2C(=O)c2ccc(F)cc2)c(O)c1 [Compound J-7] | 6.2
11 | 0.039 | O=C1NC(=O)/C(=C/c2ccc(C(=O)NC[C@@H]3C[C@@H](SCc4ccccc4-c4ccccc4)CN3C(=O)c3ccccc3C(=O)c3ccc(F)cc3)s2)S1 [Compound I-7] | 0.69
12 | 0.81 | O=C1NC(=S)S/C1=C\c1ccc(NC(=O)[C@@H]2C[C@@H](SCc3ccccc3-c3ccccc3)CN2C(=O)c2ccccc2C(=O)c2ccc(F)cc2)s1 [Compound J-4] | 5.2
13 | 1 | O=C1NC(=O)/C(=C/c2ccc(C(=O)NC[C@@H]3C[C@H](SCc4ccccc4)CN3C(=O)c3ccccc3C(=O)c3ccccc3)cc2)S1 [Compound I-2] | 0.66
14 | 0.73 | O=C1NC(=S)S/C1=C\c1ccc(C=C[C@@H]2C[C@@H](OCc3ccccc3-c3ccccc3)CN2C(=O)c2ccccc2C(=O)c2ccc(F)cc2)cc1 [Compound E-3] | 6
15 | 0.079 | CC(C)CN(Cc1ccccc1)[C@@H]1C[C@@H](CNC(=O)/C=C/c2ccc(/C=C3\SC(=O)NC3=O)cc2)N(C(=O)c2ccccc2C(=O)c2ccc(F)cc2)C1 [Compound M-18] | 8.8

More lines, now with the values behind:

Row | SMILES | IC50 (cPLA2) [µM] | IC50 [1] [µM]
16 | CCN(CC)c1cccc(O[C@@H]2C[C@@H](CNC(=O)c3ccc(/C=C4\SC(=O)NC4=O)cc3)N(C(=O)c3ccccc3C(=O)c3ccc(F)cc3)C2)c1 [Compound A-89] | 0.096 | 0.49
17 | O=C1NC(=O)/C(=C/c2ccc(NC(=O)[C@@H]3C[C@@H](OCc4ccccc4-c4ccccc4)CN3C(=O)c3ccccc3C(=O)c3ccc(F)cc3)cc2)S1 [Compound B-1] | 0.21 | 12
18 | COc1cccc(-c2ccccc2)c1O[C@@H]1C[C@@H](CNC(=O)c2ccc(/C=C3\SC(=O)NC3=O)cc2)N(C(=O)c2ccccc2C(=O)c2ccc(F)cc2)C1 [Compound A-117] | 0.015 | 0.2
19 | O=C1NC(=O)/C(=C/c2ccc(C(=O)NC[C@@H]3C[C@@H](OCc4ccccc4-c4cc5ccccc5o4)CN3C(=O)c3ccccc3C(=O)c3ccc(F)cc3)cc2)S1 [Compound A-40] | 0.036 | 0.61
20 | O=C1NC(=O)/C(=C/c2ccc(NC(=O)[C@@H]3C[C@@H](OCc4ccccc4-c4ccccc4)CN3C(=O)c3ccccc3C(=O)c3ccc(Cl)cc3)cc2)S1 [Compound B-3] | 0.42 | 3.9
21 | O=C1NC(=O)/C(=C/c2ccc(C(=O)NC[C@@H]3C[C@@H](Oc4ccccc4-c4ccccc4-c4ccccc4)CN3C(=O)c3ccccc3C(=O)c3ccc(F)cc3)cc2)S1 [Compound A-103] | 0.058 | 0.59
22 | O=C1NC(=O)/C(=C/c2ccc(C(=O)NC[C@@H]3C[C@@H](OCc4ccc(-c5ccccc5)cc4)CN3C(=O)c3ccccc3C(=O)c3ccccc3)cc2)S1 [Compound A-4] | 0.3 | 0.21
23 | Cc1ccc(C(=O)c2ccccc2C(=O)N2C[C@H](OCc3ccccc3-c3ccccc3)C[C@H]2CNC(=O)c2ccc(/C=C3\SC(=S)NC3=O)cc2)cc1 [Compound A-27] | 0.43 | 1.2
24 | O=C1NC(=O)/C(=C/c2ccc(C(=O)NC[C@@H]3C[C@@H](OCc4ccccc4-c4ccccc4)CN3C(=O)c3ccccc3C(=O)c3ccc(F)cc3F)cc2)S1 [Compound A-25] | 0.048 | 0.8
25 | O=C1NC(=O)/C(=C/c2ccc(C(=O)NC[C@@H]3C[C@@H](Oc4ccccc4-c4cccc5ccccc45)CN3C(=O)c3ccccc3C(=O)c3ccc(F)cc3)cc2)S1 [Compound A-94] | 0.024 | 1.4
26 | O=C1NC(=O)/C(=C/c2ccc(C(=O)NC[C@@H]3C[C@@H](Oc4cc(-c5ccccc5)c5ccccc5c4)CN3C(=O)c3ccccc3C(=O)c3ccc(F)cc3)cc2)S1 [Compound A-81] | 0.053 | 0.35
27 | O=C1NC(=O)/C(=C/c2ccc(C(=O)NC[C@@H]3C[C@@H](Oc4ccccc4-c4ccc5c(c4)OCO5)CN3C(=O)c3ccccc3C(=O)c3ccc(F)cc3)cc2)S1 [Compound A-101] | 0.062 | 0.35
28 | O=C1NC(=O)/C(=C/c2ccc(C(=O)NC[C@@H]3C[C@@H](OCc4ccccc4-c4cccc5ccccc45)CN3C(=O)c3ccccc3C(=O)c3ccc(F)cc3)cc2)S1 [Compound A-35] | 0.04 | 0.18
29 | O=C1NC(=O)/C(=C/c2ccc(C(=O)NC[C@@H]3C[C@@H](Oc4ccc5cc(-c6ccccc6)ccc5c4)CN3C(=O)c3ccccc3C(=O)c3ccc(F)cc3)cc2)S1 [Compound A-79] | 0.02 | 0.31
30 | O=C1NC(=S)S/C1=C\c1ccc(C(=O)NC[C@@H]2C[C@@H](OCc3ccccc3-c3ccccc3)CN2C(=O)c2ccccc2C(=O)c2ccc(F)cc2)cc1 [Compound A-20] | 0.3 | 0.35
31 | O=C1NC(=O)/C(=C/c2ccc(C(=O)NC[C@@H]3C[C@@H](OCc4ccccc4-c4ccccc4)CN3C(=O)c3ccccc3C(=O)c3ccsc3)cc2)S1 [Compound A-18] | 1.2 | 0.38
32 | O=C1NC(=S)S/C1=C\c1ccc(NC(=O)[C@@H]2C[C@@H](OCc3ccccc3-c3ccccc3)CN2C(=O)c2ccccc2C(=O)c2ccc(Cl)cc2)cc1 [Compound B-4] | 0.13 | 5.6
33 | O=C1NC(=O)/C(=C/c2ccc(C(=O)NC[C@@H]3C[C@@H](Oc4cccc(-c5ccc6ccccc6c5)c4)CN3C(=O)c3ccccc3C(=O)c3ccc(F)cc3)cc2)S1 [Compound A-84] | 0.033 | 0.25
